Laboratory results taken from patent US9655889B2, “Inhibitors of human immunodeficiency virus replication” (priority 2013, dated 2017).

Tested on: recombinant NL-Rluc virus
Test: Inhibition of HIV replication (NL-RLuc virus luciferase assay in MT-2 cells)
Assay type: cell-based
Conditions: Human immunodeficiency virus 1, MT2, 120 h

**Q.** Which EC50 does the source give for Cc1cc(CNC(=O)c2cn3c(N4CCC(C)(C)CC4)c([C@H](OC(C)(C)C)C(=O)O)c(C)cc3n2)ccc1F [Example 1, (S)-2-(tert-Butoxy)-2-(5-(4,4-dimethylpiperidin-1-yl)-2-((4-fluoro-3-methylbenzyl)carbamoyl)-7-methylimidazo[1,2-a]pyridin-6-yl)acetic acid] here?
**A.** 8 nM

**Q.** How did the EC50 turn out when Cc1cc2nc(-c3ncc(Cc4ccc(F)cc4)o3)cn2c(N2CCC(C)(C)CC2)c1[C@H](OC(C)(C)C)C(=O)O [Example 2, (S)-2-(tert-Butoxy)-2-(5-(4,4-dimethylpiperidin-1-yl)-2-(5-(4-fluorobenzyl)oxazol-2-yl)-7-methylimidazo[1,2-a]pyridin-6-yl)acetic acid] was run?
**A.** 2 nM

**Q.** Which EC50 does the source give for Cc1cc2nc(-c3ncc(Cc4ccc(F)cc4)s3)cn2c(N2CCC(C)(C)CC2)c1[C@H](OC(C)(C)C)C(=O)O [Example 3, (S)-2-(tert-Butoxy)-2-(5-(4,4-dimethylpiperidin-1-yl)-2-(5-(4-fluorobenzyl)thiazol-2-yl)-7-methylimidazo[1,2-a]pyridin-6-yl)acetic acid] here?
**A.** 21 nM

**Q.** How did the EC50 turn out when Cc1cc2nc(-c3nc(Cc4ccccc4)no3)cn2c(N2CCC(C)(C)CC2)c1[C@H](OC(C)(C)C)C(=O)O [Example 4, (S)-2-(2-(3-Benzyl-1,2,4-oxadiazol-5-yl)-5-(4,4-dimethylpiperidin-1yl)-7-methylimidazo[1,2-a]pyridin-6-yl)-2-(tert-butoxy)acetic acid] was run?
**A.** 3 nM

**Q.** Which EC50 does the source give for Cc1cc2nc(-c3nnc(Cc4ccccc4)o3)cn2c(N2CCC(C)(C)CC2)c1[C@H](OC(C)(C)C)C(=O)O [Example 5, (S)-2-(2-(5-Benzyl-1,3,4-oxadiazol-2-yl)-5-(4,4-dimethylpiperidin-1-yl)-7-methylimidazo[1,2-a]pyridin-6-yl)-2-(tert-butoxy)acetic acid] here?
**A.** 8 nM

**Q.** For Cc1cc2nc(-c3nc(Cl)c(Cc4ccc(F)cc4)[nH]3)cn2c(N2CCC(C)(C)CC2)c1[C@H](OC(C)(C)C)C(=O)O [Example 6, (S)-2-(tert-Butoxy)-2-(2-(4-chloro-5-(4-fluorobenzyl)-1H-imidazol-2-yl)-5-(4,4-dimethylpiperidin-1-yl)-7-methylimidazo[1,2-a]pyridin-6)acetic acid], which EC50 is on record?
**A.** 13 nM

**Q.** With Cc1cc2nc(-c3ncc(Cc4ccc(F)cc4)[nH]3)cn2c(N2CCC(C)(C)CC2)c1[C@H](OC(C)(C)C)C(=O)O [Example 7, (S)-2-(tert-Butoxy)-2-(5-(4,4-dimethylpiperidin-1-yl)-2-(5-(4-fluorobenzyl)-1H-imidazol-2-yl)-7-methylimidazo[1,2-a]pyridin-6-yl)acetic acid] as the molecule, how does the EC50 read?
**A.** 34 nM

**Q.** With C=CCOC1(C)CCN(c2c([C@H](OC(C)(C)C)C(=O)O)c(C)cc3nc(NS(=O)(=O)Cc4ccc(F)cc4)cn23)CC1 [Example 8, (S)-2-(5-(4-(Allyloxy)-4-methylpiperidin-1-yl)-2((4-fluorophenyl)methylsulfonamido)-7-methylimidazo[1,2-a]pyridin-6-yl)-2-(tert-butoxy)acetic acid] as the molecule, how does the EC50 read?
**A.** 3300 nM

**Q.** With C=CCOC1(C)CCN(c2c([C@H](OC(C)(C)C)C(=O)O)c(C)cc3nc(NS(=O)(=O)c4ccc(F)cc4)cn23)CC1 [Example 9, (S)-2-(5-(4-(Allyloxy)-4-methylpiperidin-1-yl)-2-(4-fluorophenylsulfonamido)-7-methylimidazo[1,2-a]pyridin-6-yl)-2-(tert-butoxy)acetic acid] as the molecule, how does the EC50 read?
**A.** 6030 nM
